Literature values as cited in US20250387497A1, “MULTIVALENT MULTISPECIFIC CONJUGATES AND RELATED COMPOSITIONS AND METHODS OF USE” (Purdue Research Foundation, priority 2022, published 2025).
pKd: −log10 of the molar value.

Columns and labels:
[1] = target: Her2 (Homo sapiens, UniProt P04626); conditions: read-out: binding affinity for Her2
[2] = target: EGFR (Homo sapiens, UniProt P00533); conditions: read-out: binding affinity for EGFR

FCGDGFYACYMDV [H]
pKd [1]: 6.52

YHWYGYTPQNVI [E]
pKd [2]: 3.34
